# Data published in patent publication US12436145B2, “Cryptic antibiotics and methods for detecting bioactive cryptic metabolites” (THE TRUSTEES OF PRINCETON UNIVERSITY, priority 2019, dated 2025).
# Read-outs that look alike come from different tables or passages of the source. Peptide text beside a SMILES is read from it.
# Key:
# [1] = test system: A. keratiniphila; assay: Elicitor screening, supernatants in liquid bioassay against E. coli; type: cell-based, Amycolatopsis kerathiniphila; settings: A. keratiniphila grown with ~33 μM elicitor; supernatant on E. coli, OD600 nm
# Method: (§1) For the high-throughput-elicitor screening portion of this example, the procedure is described for S. hiroshimensis. An identical procedure was used for S. lavendulae and A. keratiniphila. […] The culture was incubated at 30° C./250 rpm for two days. Then, the mycelia cell mass was pelleted by centrifugation, the supernatant discarded, and a stock solution of 100 mg/mL cell mass was generated in R4 medium. The stock solution was used to prepare the appropriate volume (see below) of R4 medium containing 0.5 mg/mL mycelia cell mass in a 250 mL Erlenmeyer flask. The suspension was homogenized by stirring at room temperature. Subsequently, a MultiFlow Dispenser (from Biotek, Inc.) was used to dispense 150 μL of the suspension into each well of six sterile round bottom 96 well plates (from Corning, Inc.). Candidate elicitors were added from a commercially-available 502-member Natural Products Library (from Enzo Life Sciences, Inc.) using a CYBI-WELL™ automated liquid transfer robot (from CyBio AG). A volume of 0.5 μL was transferred from the compound library into each well to give a final concentration of ^˜33 μM. Then each plate was covered with a BREATHE-EASY® sealing membrane (from MilliporeSigma) and cultured at 30° C./200 rpm for 5 days. Humidity was maintained in the shaker/incubator by incubating several flasks containing sterile water.
# Assays against E. coli were also carried out. In this case, broader elicitation screens were conducted using a ˜500-member natural product library as the source of potential inducers. To increase the throughput of the assays, liquid bioassays were used. […]
# From the elicitor plates, after culturing for 5 days, the plates were spun down in a 96-well plate centrifuge and the supernatants (10 μL) transferred to fresh 96-well assay plates, each well containing 100 μL LB-E. coli culture, with the E. coli cells inoculated to an initial OD600 nm OD600 nm of 0.002. The assay plates were cultured at 37° C./200 rpm overnight (10-12 h) and OD600 nm was then determined using a plate reader. […]
# [2] = test system: S. cebuensis; assay: Elicitor screening, supernatants on E. coli cultures (OD600 nm); type: cell-based, Saccharopolyspora cebuensis; settings: S. cebuensis grown with elicitor, supernatant on E. coli
# Method: Wild-type S. cebuensis cultures were transferred to 96 well-plates and each well was robotically supplemented with a compound from a commercial small molecule library as a source of elicitors. […] To grow the cells, the plates were incubated for a defined period. […] The OD600 nm from each well was normalized and the % E. coli growth thus obtained was plotted as a function of each elicitor, allowing one to identify at least one elicitor corresponding to a second activity greater than the first activity.
# [3] = test system: E. coli; assay: In-house bioactivity assays of induced peaks and purified taylorflavins; type: cell-based
# [4] = test system: E. coli ATCC 25922; assay: Minimal inhibitory concentration (CLSI methods); type: cell-based
# Method: (§2) Antibacterial assays with taylorflavin B (8) were carried out by Micromyx, LLC in accordance with methods from the Clinical and Laboratory Standards Institute. Minimal inhibitory concentrations were determined with the following strains: E. coli ATCC 25922, A. baumannii ATCC 19606, V. cholerae BAA-2163, N. gonorrhoeae ATCC 49226, P. aeruginosa ATCC 27853, K. pneumoniae MMX 214. S. aureus ATCC 29213, S. aureus MMX 2011, S. pneumoniae ATCC 49619, S. pyogenes MMX 6253, S. agalactiae MMX 6189, E. faecalis ATCC 29212, E. faecalis MMX 486, B. subtilis ATCC 6633, C. difficile ATCC 700057, B. fragilis ATCC 25285. Assays with taylorflavin A (7) were carried in-house according to the same protocols.
# [5] = test system: S. aureus ATCC 29213; assay: Minimal inhibitory concentration (CLSI methods); type: cell-based
# Method: as §2
# [6] = test system: P. aeruginosa ATCC 27853; assay: Minimal inhibitory concentration (CLSI methods); type: cell-based
# Method: as §2
# [7] = test system: B. subtilis ATCC 6633; assay: Minimal inhibitory concentration (CLSI methods); type: cell-based
# Method: as §2
# [8] = test system: S. hiroshimensis; assay: Elicitor screening, supernatants in liquid bioassay against E. coli; type: cell-based, Streptomyces hiroshimensis; settings: S. hiroshimensis grown with ~33 μM elicitor; supernatant on E. coli, OD600 nm
# Method: as §1, with “A volume of 0.5 μL was transferred from the compound library into each well to give a final concentration of ^˜33 μM.” left out
# (§3) Assays against E. coli were also carried out. In this case, broader elicitation screens were conducted using a ˜500-member natural product library as the source of potential inducers. To increase the throughput of the assays, liquid bioassays were used. Rather than manually spotting each disc, the supernatants were screened by robotically transferring the supernatant from the elicitor plate to 96-well plates inoculated with the E. coli test strain.
# (§4) From the elicitor plates, after culturing for 5 days, the plates were spun down in a 96-well plate centrifuge and the supernatants (10 μL) transferred to fresh 96-well assay plates, each well containing 100 μL LB-E. coli culture, with the E. coli cells inoculated to an initial OD600 nm OD600 nm of 0.002. The assay plates were cultured at 37° C./200 rpm overnight (10-12 h) and OD600 nm was then determined using a plate reader. To generate the plot in FIG. 3, the OD600 nm from each well was divided by the average OD600 nm from the entire plate and multiplied by 100 to give the percent growth. This normalization was carried out to account for plate-to-plate variation in growth rates.
# [9] = test system: S. lavendulae; assay: as above; type: cell-based, Streptomyces lavendulae; settings: S. lavendulae grown with ~33 μM elicitor; supernatant on E. coli, OD600 nm
# Method: as §1, §3
# as §4, with “rates. The results for the entire library are shown for S. lavendulae in FIG. 3. The two wells with the highest stimulation (301, 302) and highest inhibition (303, 304) are indicated.” for “rates.”
# [10] = test system: A. keratiniphila; assay: Elicitor screening, supernatants in disc diffusion assays against B. subtilis; type: cell-based, Amycolatopsis kerathiniphila; settings: A. keratiniphila grown with ~33 μM elicitor, 5 days; supernatant on B. subtilis disc diffusion
# Method: as §1, with “Then each plate was covered with a BREATHE-EASY® sealing membrane (from MilliporeSigma) and cultured at 30° C./200 rpm for 5 days. Humidity was maintained in the shaker/incubator by incubating several flasks containing sterile water.” left out
# The resulting agar plates were assessed visually, and subsequently examined visually for halos. To generate FIG. 2, the halo diameter, if any, was measured and categorized as none (n), weak (w), medium (m), or strong (s) inhibition. […]
# [11] = test system: S. cebuensis; assay: Validation of elicitors: agar disc diffusion assays; type: cell-based, Saccharopolyspora cebuensis; settings: supernatants of S. cebuensis grown with elicitor
# [12] = test system: S. hiroshimensis; assay: Elicitor screening, supernatants in disc diffusion assays against B. subtilis; type: cell-based, Streptomyces hiroshimensis; settings: S. hiroshimensis grown with ~33 μM elicitor, 5 days; supernatant on B. subtilis disc diffusion
# Method: as §1, with “Candidate elicitors were added from a commercially-available 502-member Natural Products Library (from Enzo Life Sciences, Inc.) using a CYBI-WELL™ automated liquid transfer robot (from CyBio AG). A volume of 0.5 μL was transferred from the compound library into each well to give a final concentration of ^˜33 μM.” left out
smiles,measurement,setting,value
Cc1cn([C@H]2C[C@H](N=[N+]=[N-])[C@@H](CO)O2)c(=O)[nH]c1=O [AZT],effect of elicitor-induced metabolome on E. coli growth,[1],produce growth-inhibitory compounds
CCCCC(CC)COC(=O)CC(C(=O)OCC(CC)CCCC)S(=O)(=O)[O-].[Na+] (stereo not shown) [Na-docusate],effect of elicitor-induced metabolome on E. coli growth,[2],stimulated E. coli growth best
Cn1nc2[nH]c(=O)n(C)c(=O)c2nc1=O [Taylorflavin A],antibiotic activity / inhibition of E. coli growth,[3],antibiotic activity
same,minimal inhibitory concentration (MIC),[4],37.5 µg/mL
same,minimal inhibitory concentration (MIC),[5],>64 µg/mL
same,minimal inhibitory concentration (MIC),[5]; listed as taylorflavin A,Significantly weaker activity
same,minimal inhibitory concentration (MIC),[6],25 µg/mL
same,minimal inhibitory concentration (MIC),[7],>64 µg/mL
same,minimal inhibitory concentration (MIC),[7]; listed as taylorflavin A,Significantly weaker activity
CC(=O)OC1CN2CCC1CC2 (stereo not shown) [aceclidine],effect of elicitor-induced metabolome on E. coli growth,[8],most enhanced E. coli growth
NC(=O)NC1NC(=O)NC1=O (stereo not shown) [allantoin],effect of elicitor-induced metabolome on E. coli growth,[9],inhibited it
COC(=O)[C@H](Cc1ccccc1)NC(=O)[C@@H](N)CC(=O)O [aspartame] (H-Asp-Phe-OMe),effect of elicitor-induced metabolome on E. coli growth,[1],enhanced E. coli growth
CC(=O)O[C@H]1C(=O)[C@@]2(C)[C@H]([C@H](OC(=O)c3ccccc3)[C@]3(O)C[C@H](O)C(C)=C1C3(C)C)[C@]1(OC(C)=O)CO[C@@H]1C[C@@H]2O [baccatin III],induction of zones of inhibition against B. subtilis,[10],gave rise to zones of inhibition
C[C@H](CCC(=O)O)[C@H]1CC[C@H]2[C@@H]3[C@H](O)C[C@@H]4C[C@H](O)CC[C@]4(C)[C@H]3CC[C@]12C [chenodiol],effect of elicitor-induced metabolome on E. coli growth,[9],support E. coli growth best
CN(C)CC[C@@H](c1ccc(Cl)cc1)c1ccccn1 [dexchlorpheniramine],effect of elicitor-induced metabolome on E. coli growth,[8],most enhanced E. coli growth
NS(=O)(=O)c1cc(C(=O)O)c(NCc2ccco2)cc1Cl [furosemide],halo of growth-inhibition in agar disc diffusion,[11],halo of growth-inhibition
N[C@H]1C(O)O[C@H](CO)[C@@H](O)[C@@H]1O (stereo partly shown) [glucosamine],effect of elicitor-induced metabolome on E. coli growth,[8],most enhanced E. coli growth
O[C@H]1[C@H](O)[C@@H](O)[C@H](O)[C@@H](O)[C@H]1O [inositol],effect of elicitor-induced metabolome on E. coli growth,[9],inhibited it
CC(C)NCC(O)c1ccc(O)c(O)c1 (stereo not shown) [isoproterenol],effect of elicitor-induced metabolome on E. coli growth,[9],support E. coli growth best
COc1cc2oc(=O)ccc2cc1O [isoscopoletin],induction of zones of inhibition against B. subtilis,[10],gave rise to zones of inhibition
CC12CC3CC(C)(C1)CC(N)(C3)C2 [memantine],effect of elicitor-induced metabolome on E. coli growth,[8],inhibited E. coli growth best
Cn1cc[nH]c1=S [methimazole],effect of elicitor-induced metabolome on E. coli growth,[2],stimulated E. coli growth best
CC[C@@H](CO)NC(=O)[C@@H]1C=C2c3cccc4[nH]cc(c34)C[C@H]2N(C)C1 [methylergonovine],effect of elicitor-induced metabolome on E. coli growth,[8],inhibited E. coli growth best
NC(=O)CN1CCCC1=O [piracetam],effect of elicitor-induced metabolome on E. coli growth,[2],stimulated E. coli growth best
COc1cc(NC(C)CCCN)c2ncccc2c1 (stereo not shown) [primaquine],induction of anti-B. subtilis metabolite(s),[12],appeared to elicit anti-B. subtilis metabolite(s)
CCN(CC)CCOC(=O)c1ccc(N)cc1 [procaine],effect of elicitor-induced metabolome on E. coli growth,[2],inhibited it
same,induction of anti-B. subtilis metabolite(s),[12],appeared to elicit anti-B. subtilis metabolite(s)
CCN1CCCC1CNC(=O)c1cc(S(N)(=O)=O)ccc1OC (stereo not shown) [sulpiride],effect of elicitor-induced metabolome on E. coli growth,[1],produce growth-inhibitory compounds
